The values that follow come from US11331102B2, “Purified pentagalloyl glucose and devices for delivery” (Nectero Medical, Inc., priority 2018, dated 2022).

A short description of the data set: studies of the concentration at which PGG of a given purity may be safely delivered. Conditions: depends on purity of the PGG; toxic impurities gallic acid and methyl gallate. From the text:
The concentrations of PGG which may be safely delivered to a patient may be generally proportional to the purity of the PGG. For example, gallic acid, depicted in FIG. 1B, and methyl gallate, depicted in FIG. 1C, are common cytotoxic impurities which may be removed from a source batch of PGG during the purification process. Eliminating the presence of or reducing the concentration of toxic impurities from the delivered PGG may allow higher concentrations of the PGG to be delivered due to the mitigation of the toxic side effects of impurities commonly found in isolated PGG. For instance, studies have shown that substantially 100% pure PGG may be safely delivered at concentrations up to approximately 0.330% (w/v), 95% pure PGG may be safely delivered at concentrations up to approximately 0.125% (w/v), and 85% pure PGG may be safely delivered at concentrations up to approximately 0.06% (w/v). Delivery of PGG in higher concentrations may enhance the amount of uptake of PGG by the target tissue which may increase the efficacy of the PGG treatment. Delivery of PGG in higher concentrations may increase the rate of uptake of PGG by the tissue allowing the same amount of uptake in shorter delivery times. Reducing or minimizing the delivery time may be advantageous for reducing the overall treatment time, and particularly the duration of time for which a blood vessel, such as the aorta, is potentially occluded, as described elsewhere herein. Minimization of the treatment time and particularly the duration of blood occlusion may improve the safety and convenience of the treatment procedure and improve patient outcomes.
Take “1,2,3,4,6-pentagalloyl glucose [85% pure PGG]”: the “concentration up to which PGG may be safely delivered” value (shortened to “concentration up”) is ≤ 0.06 % (w/v).

Take “1,2,3,4,6-pentagalloyl glucose [95% pure PGG]”: the “concentration up” value was ≤ 0.125 % (w/v).

Turning to “1,2,3,4,6-pentagalloyl glucose [substantially 100% pure PGG]”, the “concentration up” value is on record as ≤ 0.330 % (w/v).
